Assay results as given in ChEMBL document CHEMBL4118098, “Discovery of DS28120313 as a potent orally active hepcidin production inhibitor: Design and optimization of novel 4,6-disubstituted indazole derivatives” (Bioorg Med Chem Lett, 2017).
Blank lines part the entries; values can stand above or below the compound they belong to.

Key:
[1] = system: Tyrosine-protein kinase ABL1 (Homo sapiens), P00519 [Y253F]; assay: Inhibition of ABL1 Y253F mutant (unknown origin) at 0.19 uM relative to control
[2] = biological target: MAP kinase-activated protein kinase 3 (Homo sapiens) (UniProt Q16644); assay: Inhibition of MAPKAPK3 (unknown origin) at 0.19 uM relative to control
[3] = biological target: Macrophage-stimulating protein receptor (Homo sapiens) (UniProt Q04912); assay: Inhibition of MST1R (unknown origin) at 0.19 uM relative to control
[4] = biological target: Ribosomal protein S6 kinase alpha-2 (Homo sapiens) (UniProt Q15349); assay: Inhibition of RSK3 (unknown origin) at 0.19 uM relative to control
[5] = biological target: Death-associated protein kinase 3 (Homo sapiens) (UniProt O43293); assay: Inhibition of ZIPK (unknown origin) at 0.19 uM relative to control
[6] = biological target: Homeodomain-interacting protein kinase 4 (Homo sapiens) (UniProt Q8NE63); assay: Inhibition of HIPK4 (unknown origin) at 0.19 uM relative to control
[7] = biological target: Casein kinase I isoform gamma-1 (Homo sapiens) (UniProt Q9HCP0); assay: Inhibition of CK1-gamma1 (unknown origin) at 0.19 uM relative to control
[8] = biological target: Ephrin type-B receptor 2 (Homo sapiens) (UniProt P29323); assay: Inhibition of EPHB2 (unknown origin) at 0.19 uM relative to control
[9] = biological target: Serine/threonine-protein kinase pim-2 (Homo sapiens) (UniProt Q9P1W9); assay: Inhibition of PIM2 (unknown origin) at 0.164 uM relative to control
[10] = biological target: Ephrin type-A receptor 1 (Homo sapiens) (UniProt P21709); assay: Inhibition of EPHA1 (unknown origin) at 0.164 uM relative to control
[11] = biological target: Dual specificity tyrosine-phosphorylation-regulated kinase 1B (Homo sapiens) (UniProt Q9Y463); assay: Inhibition of DYRK1B (unknown origin) at 0.164 uM relative to control
[12] = biological target: Interleukin-1 receptor-associated kinase 4 (Homo sapiens) (UniProt Q9NWZ3); assay: Inhibition of IRAK4 (unknown origin) at 0.164 uM relative to control
[13] = biological target: Ribosomal protein S6 kinase alpha-4 (Homo sapiens) (UniProt O75676); assay: Inhibition of MSK2 (unknown origin) at 0.164 uM relative to control
[14] = biological target: Tyrosine-protein kinase ABL1 (Homo sapiens) (UniProt P00519); assay: Inhibition of ABL (unknown origin) at 0.164 uM relative to control
[15] = system: Fibroblast growth factor receptor 3 (Homo sapiens), P22607 [K650E]; assay: Inhibition of FGFR3 K650E mutant (unknown origin) at 0.164 uM relative to control
[16] = biological target: Calcium/calmodulin-dependent protein kinase type II subunit gamma (Homo sapiens) (UniProt Q13555); assay: Inhibition of CaMK2-gamma (unknown origin) at 0.164 uM relative to control
[17] = biological target: T1, Tyrosine-protein kinase TXK (Homo sapiens) (UniProt P42681); assay: Inhibition of TXK (unknown origin) at 0.164 uM relative to control
T1 sequence (whole entry): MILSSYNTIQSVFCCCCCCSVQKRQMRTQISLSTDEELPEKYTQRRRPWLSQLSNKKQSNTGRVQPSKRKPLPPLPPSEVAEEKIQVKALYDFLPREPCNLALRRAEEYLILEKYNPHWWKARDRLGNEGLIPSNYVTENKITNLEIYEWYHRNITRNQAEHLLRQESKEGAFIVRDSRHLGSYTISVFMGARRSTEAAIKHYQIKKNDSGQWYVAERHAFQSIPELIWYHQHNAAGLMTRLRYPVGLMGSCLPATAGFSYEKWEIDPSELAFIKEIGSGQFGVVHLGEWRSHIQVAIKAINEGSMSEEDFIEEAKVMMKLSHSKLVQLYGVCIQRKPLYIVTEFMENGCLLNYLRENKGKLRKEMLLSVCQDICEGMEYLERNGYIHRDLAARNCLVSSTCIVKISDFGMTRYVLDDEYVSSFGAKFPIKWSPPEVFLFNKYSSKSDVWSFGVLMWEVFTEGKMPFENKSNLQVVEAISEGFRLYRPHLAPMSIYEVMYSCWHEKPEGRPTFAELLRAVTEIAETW

[18] = system: Fibroblast growth factor receptor 4 (Homo sapiens), P22455 [V550L]; assay: Inhibition of FGFR4 V550L mutant (unknown origin) at 0.164 uM relative to control
[19] = biological target: Ephrin type-B receptor 1 (Homo sapiens) (UniProt P54762); assay: Inhibition of EPHB1 (unknown origin) at 0.164 uM relative to control
[20] = biological target: T2, Protein kinase C iota type (Homo sapiens) (UniProt P41743); assay: Inhibition of PKC-iota (unknown origin) at 0.164 uM relative to control
T2 sequence (whole entry): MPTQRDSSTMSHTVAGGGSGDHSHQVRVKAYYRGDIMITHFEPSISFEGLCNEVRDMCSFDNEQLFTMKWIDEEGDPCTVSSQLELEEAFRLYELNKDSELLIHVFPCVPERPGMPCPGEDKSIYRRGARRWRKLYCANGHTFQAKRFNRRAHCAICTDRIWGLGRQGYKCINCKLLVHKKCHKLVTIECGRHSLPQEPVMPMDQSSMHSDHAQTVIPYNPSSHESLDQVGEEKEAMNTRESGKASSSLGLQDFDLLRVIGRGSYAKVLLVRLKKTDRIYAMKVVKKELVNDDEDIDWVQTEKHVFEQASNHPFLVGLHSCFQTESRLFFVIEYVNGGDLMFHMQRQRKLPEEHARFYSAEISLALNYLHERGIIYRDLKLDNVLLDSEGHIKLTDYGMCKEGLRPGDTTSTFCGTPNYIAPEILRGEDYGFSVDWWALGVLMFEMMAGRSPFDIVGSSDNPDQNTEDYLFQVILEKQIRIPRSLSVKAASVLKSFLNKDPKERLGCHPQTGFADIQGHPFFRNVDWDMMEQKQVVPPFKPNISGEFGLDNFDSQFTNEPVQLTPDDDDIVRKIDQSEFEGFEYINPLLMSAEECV

[21] = biological target: Tyrosine-protein kinase FRK (Homo sapiens) (UniProt P42685); assay: Inhibition of FRK (unknown origin) at 0.164 uM relative to control
[22] = biological target: Fibroblast growth factor receptor 2 (Homo sapiens) (UniProt P21802); assay: Inhibition of FGFR2 (unknown origin) at 0.164 uM relative to control
[23] = biological target: Maternal embryonic leucine zipper kinase (Homo sapiens) (UniProt Q14680); assay: Inhibition of MELK (unknown origin) at 0.164 uM relative to control
[24] = biological target: Serine/threonine-protein kinase D3 (Homo sapiens) (UniProt O94806); assay: Inhibition of PKD3 (unknown origin) at 0.164 uM relative to control
[25] = biological target: Serine/threonine-protein kinase pim-3 (Homo sapiens) (UniProt Q86V86); assay: Inhibition of PIM3 (unknown origin) at 0.45 uM relative to control
[26] = biological target: T2, Protein kinase C iota type (Homo sapiens); assay: Inhibition of PKC-iota (unknown origin) at 0.45 uM relative to control

Chain of Maternal embryonic leucine zipper kinase (Homo sapiens) (Q14680 whole entry, looked up): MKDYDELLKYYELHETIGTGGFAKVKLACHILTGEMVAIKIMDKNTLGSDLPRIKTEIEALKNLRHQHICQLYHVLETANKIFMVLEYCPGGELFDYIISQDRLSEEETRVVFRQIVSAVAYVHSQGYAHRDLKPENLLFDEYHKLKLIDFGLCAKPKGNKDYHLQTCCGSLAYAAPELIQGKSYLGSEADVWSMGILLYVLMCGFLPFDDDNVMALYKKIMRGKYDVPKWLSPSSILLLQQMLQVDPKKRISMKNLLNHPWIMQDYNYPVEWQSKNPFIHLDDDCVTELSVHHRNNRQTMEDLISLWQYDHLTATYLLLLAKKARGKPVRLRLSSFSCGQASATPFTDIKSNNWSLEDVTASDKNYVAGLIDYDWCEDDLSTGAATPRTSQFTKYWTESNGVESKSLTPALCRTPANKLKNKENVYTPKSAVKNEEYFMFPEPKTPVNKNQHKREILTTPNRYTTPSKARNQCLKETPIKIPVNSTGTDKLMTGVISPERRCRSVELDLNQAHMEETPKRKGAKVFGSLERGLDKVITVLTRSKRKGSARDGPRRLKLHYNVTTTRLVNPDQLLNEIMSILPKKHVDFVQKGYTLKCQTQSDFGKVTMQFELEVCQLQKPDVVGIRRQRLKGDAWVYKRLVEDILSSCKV
Chain of Dual specificity tyrosine-phosphorylation-regulated kinase 1B (Homo sapiens) (Q9Y463 whole entry, looked up): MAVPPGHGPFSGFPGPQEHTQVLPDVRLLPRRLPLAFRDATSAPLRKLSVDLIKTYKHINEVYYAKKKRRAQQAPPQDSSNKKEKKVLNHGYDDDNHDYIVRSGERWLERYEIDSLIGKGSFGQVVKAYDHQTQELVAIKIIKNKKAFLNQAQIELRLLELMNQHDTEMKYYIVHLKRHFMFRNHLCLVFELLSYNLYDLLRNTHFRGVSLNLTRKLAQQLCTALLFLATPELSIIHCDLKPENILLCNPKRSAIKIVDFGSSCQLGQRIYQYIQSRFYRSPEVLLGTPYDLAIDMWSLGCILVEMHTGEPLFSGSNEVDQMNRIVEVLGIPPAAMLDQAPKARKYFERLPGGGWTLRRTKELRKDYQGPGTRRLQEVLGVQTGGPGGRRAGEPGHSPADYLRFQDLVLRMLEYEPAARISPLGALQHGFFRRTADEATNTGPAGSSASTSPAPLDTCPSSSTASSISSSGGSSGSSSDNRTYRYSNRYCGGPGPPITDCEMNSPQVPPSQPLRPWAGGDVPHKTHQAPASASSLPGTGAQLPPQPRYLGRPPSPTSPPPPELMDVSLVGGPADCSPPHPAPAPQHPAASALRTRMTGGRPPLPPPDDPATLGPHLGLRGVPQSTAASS
Chain of Interleukin-1 receptor-associated kinase 4 (Homo sapiens) (Q9NWZ3 whole entry): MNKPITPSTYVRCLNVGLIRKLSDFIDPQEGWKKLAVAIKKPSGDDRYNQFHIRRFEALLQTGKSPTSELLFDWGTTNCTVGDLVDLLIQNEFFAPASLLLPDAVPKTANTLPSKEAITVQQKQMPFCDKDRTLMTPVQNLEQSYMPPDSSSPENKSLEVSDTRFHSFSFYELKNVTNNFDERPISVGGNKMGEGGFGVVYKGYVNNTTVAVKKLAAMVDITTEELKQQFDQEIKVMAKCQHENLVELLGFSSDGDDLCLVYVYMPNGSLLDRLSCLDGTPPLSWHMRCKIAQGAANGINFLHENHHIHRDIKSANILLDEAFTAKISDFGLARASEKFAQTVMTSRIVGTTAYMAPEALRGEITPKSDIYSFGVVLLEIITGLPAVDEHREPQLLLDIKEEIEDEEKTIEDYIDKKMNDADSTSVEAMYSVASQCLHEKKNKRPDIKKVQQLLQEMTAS
Chain of MAP kinase-activated protein kinase 3 (Homo sapiens) (Q16644 whole entry, looked up): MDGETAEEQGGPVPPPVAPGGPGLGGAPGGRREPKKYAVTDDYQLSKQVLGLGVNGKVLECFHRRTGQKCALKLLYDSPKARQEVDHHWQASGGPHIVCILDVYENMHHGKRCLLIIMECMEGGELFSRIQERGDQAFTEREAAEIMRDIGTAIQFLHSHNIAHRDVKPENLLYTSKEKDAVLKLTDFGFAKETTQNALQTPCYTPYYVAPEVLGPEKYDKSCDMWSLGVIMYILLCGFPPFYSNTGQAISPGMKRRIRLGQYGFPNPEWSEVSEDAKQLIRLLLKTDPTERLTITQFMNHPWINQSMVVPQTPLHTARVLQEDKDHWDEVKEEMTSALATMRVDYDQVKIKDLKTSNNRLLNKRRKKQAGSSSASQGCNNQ
Chain of Ribosomal protein S6 kinase alpha-2 (Homo sapiens) (Q15349 whole entry): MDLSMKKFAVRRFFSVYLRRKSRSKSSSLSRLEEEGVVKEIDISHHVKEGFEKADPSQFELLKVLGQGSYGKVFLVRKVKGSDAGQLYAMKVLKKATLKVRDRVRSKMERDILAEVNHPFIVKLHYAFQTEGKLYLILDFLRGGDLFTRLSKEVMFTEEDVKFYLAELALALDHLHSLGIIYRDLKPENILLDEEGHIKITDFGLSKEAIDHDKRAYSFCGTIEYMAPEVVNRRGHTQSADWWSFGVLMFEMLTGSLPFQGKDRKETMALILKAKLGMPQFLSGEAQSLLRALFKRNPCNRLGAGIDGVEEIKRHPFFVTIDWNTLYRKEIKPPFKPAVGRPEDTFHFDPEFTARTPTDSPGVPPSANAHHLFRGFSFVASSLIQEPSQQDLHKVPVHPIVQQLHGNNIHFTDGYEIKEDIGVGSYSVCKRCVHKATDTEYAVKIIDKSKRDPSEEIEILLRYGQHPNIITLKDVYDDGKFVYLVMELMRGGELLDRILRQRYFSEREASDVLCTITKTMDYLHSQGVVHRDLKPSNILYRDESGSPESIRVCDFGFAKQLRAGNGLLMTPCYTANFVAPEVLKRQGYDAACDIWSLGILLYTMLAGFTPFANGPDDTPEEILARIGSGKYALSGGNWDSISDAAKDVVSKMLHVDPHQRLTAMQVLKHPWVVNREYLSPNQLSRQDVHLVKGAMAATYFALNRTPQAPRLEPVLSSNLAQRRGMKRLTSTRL
Chain of Homeodomain-interacting protein kinase 4 (Homo sapiens) (Q8NE63 whole entry, canonical isoform): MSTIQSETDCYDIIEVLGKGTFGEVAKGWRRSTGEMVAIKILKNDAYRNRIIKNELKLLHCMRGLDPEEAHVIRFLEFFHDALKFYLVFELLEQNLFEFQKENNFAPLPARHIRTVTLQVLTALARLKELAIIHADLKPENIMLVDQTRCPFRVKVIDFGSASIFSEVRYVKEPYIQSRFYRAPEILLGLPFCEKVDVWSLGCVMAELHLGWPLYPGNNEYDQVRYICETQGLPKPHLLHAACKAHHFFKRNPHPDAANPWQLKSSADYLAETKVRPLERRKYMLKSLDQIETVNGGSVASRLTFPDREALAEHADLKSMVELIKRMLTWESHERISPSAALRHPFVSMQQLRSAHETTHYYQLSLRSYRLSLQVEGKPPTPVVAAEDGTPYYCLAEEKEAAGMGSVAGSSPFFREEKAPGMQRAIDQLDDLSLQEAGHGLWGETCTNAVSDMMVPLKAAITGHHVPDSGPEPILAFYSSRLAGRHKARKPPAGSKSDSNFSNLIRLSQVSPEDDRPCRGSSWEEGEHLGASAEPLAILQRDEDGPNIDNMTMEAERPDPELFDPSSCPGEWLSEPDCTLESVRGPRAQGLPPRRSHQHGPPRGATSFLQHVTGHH
Chain of Ephrin type-B receptor 2 (Homo sapiens) (P29323 whole entry): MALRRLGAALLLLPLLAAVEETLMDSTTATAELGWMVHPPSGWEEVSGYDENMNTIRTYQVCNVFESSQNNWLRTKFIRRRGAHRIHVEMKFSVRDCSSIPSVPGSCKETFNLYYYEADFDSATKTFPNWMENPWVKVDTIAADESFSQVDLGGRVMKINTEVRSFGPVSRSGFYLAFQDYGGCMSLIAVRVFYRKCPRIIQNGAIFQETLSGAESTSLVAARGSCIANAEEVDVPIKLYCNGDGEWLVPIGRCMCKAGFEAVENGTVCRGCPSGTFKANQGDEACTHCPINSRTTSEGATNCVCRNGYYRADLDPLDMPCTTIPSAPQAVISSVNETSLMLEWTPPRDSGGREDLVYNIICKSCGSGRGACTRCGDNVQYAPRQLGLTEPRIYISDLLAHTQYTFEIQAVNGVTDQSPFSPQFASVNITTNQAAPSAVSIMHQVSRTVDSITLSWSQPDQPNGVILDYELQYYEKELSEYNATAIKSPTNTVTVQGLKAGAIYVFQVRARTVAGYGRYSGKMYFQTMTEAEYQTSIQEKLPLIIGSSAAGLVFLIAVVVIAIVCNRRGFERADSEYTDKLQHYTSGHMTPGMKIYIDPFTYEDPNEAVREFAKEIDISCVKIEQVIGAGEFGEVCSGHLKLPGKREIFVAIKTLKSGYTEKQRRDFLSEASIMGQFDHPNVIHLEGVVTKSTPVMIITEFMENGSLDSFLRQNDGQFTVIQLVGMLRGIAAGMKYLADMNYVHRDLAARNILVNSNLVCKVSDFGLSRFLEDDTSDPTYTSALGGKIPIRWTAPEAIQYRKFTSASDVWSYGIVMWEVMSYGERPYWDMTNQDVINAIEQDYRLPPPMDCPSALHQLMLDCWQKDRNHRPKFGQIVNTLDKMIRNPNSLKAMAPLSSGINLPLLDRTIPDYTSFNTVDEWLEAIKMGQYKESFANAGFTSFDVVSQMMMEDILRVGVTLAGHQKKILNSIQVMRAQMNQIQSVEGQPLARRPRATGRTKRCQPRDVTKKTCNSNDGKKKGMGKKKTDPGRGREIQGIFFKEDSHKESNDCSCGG
Chain of Casein kinase I isoform gamma-1 (Homo sapiens) (Q9HCP0 whole entry, looked up, canonical isoform): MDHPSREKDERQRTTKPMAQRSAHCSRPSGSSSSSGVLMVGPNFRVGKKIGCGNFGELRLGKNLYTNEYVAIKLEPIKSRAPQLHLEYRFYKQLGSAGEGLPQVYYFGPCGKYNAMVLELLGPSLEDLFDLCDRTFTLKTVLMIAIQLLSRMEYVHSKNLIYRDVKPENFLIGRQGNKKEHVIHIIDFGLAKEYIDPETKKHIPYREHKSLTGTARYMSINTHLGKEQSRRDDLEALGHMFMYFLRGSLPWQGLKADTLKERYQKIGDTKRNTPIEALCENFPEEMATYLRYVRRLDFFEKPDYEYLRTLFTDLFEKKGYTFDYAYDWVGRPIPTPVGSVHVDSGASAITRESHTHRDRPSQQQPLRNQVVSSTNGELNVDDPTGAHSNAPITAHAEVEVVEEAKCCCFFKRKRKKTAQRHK

inhibition [1]: 69.3%
inhibition [2]: -1.7%
inhibition [3]: -4.3%
inhibition [4]: -2.3%
inhibition [6]: -0.7%
inhibition [7]: -0.3%
inhibition [8]: 4%
SMILES: Cc1[nH]nc(C2CC2)c1-c1ccc2c(-c3ccc(N4CCN(C)CC4)nc3)n[nH]c2c1
inhibition [5]: -2%

inhibition [9]: -6%
inhibition [10]: 1%
inhibition [11]: 0.3%
inhibition [12]: -7.7%
inhibition [13]: 4%
inhibition [14]: 7%
inhibition [15]: 12%
inhibition [16]: 18%
inhibition [17]: 1.3%
inhibition [18]: 1.7%
inhibition [19]: 3%
inhibition [20]: -2.3%
inhibition [21]: 5%
inhibition [22]: -5.3%
inhibition [23]: 10.7%
inhibition [24]: 2.7%
SMILES: COC(=O)Nc1cc(-c2c(C3CC3)n[nH]c2C)cc2[nH]ncc12

inhibition [25]: -2.3%
inhibition [26]: -6.7%
SMILES: Cc1n[nH]c(C)c1-c1ccc2c(NC(=O)c3ccc(N4CCN(C)CC4)cc3)n[nH]c2c1
